# In patent US20230242830A1 (priority 2020, published 2023):
# pIC50: −log10 of the molar value.
# How the values were obtained:
# [1] = target: T1, BuChE from equine serum (eqBuChE) (Equus caballus, UniProt P81908); experiment: butyrylcholinesterase inhibition, Ellman spectrometric method; type: biochemical
# T1 construct: The BuChE freeze-dried from equine serum (eqBuChE, Sigma Aldrich); purchased Sigma Aldrich; host or cells: equine serum (natural source)
# Method: (§1) In the extent that the toxic activity of TCP especially involves its action on cholinesterases, the effect of the compounds used according to the invention, as well as comparative compounds, on two cholinesterases was studied. The concentration values of each compound required to inhibit 50% of the activity of two cholinesterases were measured. The higher the 50% inhibitory concentration (IC50), the less the compound is neurotoxic since it has a weaker action on the cholinesterase.
# (§2) The inhibitory capacity of the compounds on the acetylcholinesterase (AChE) and butyrylcholinesterase (BuChE) biological activity was assessed using the spectrometric method of Ellman (Ellman et al., Biochem. Pharm. 1961, 7, 88-95).
# (§3) The acetylthiocholine and butyrylthiocholine iodide, and 5,5-dithiobis (2-nitrobenzoic) acid (DTNB) were purchased from Sigma Aldrich (Steinheim, Germany).
# (§4) The BuChE freeze-dried from equine serum (eqBuChE, Sigma Aldrich) was dissolved in 0.1 M phosphate buffer (pH 7.4) to obtain enzyme stock solutions with an enzymatic activity of 2.5 units/mL. The human erythrocyte AChE (hAChE, aqueous buffer solution, ≥500 units/mg of protein (BCA), Sigma Aldrich) was diluted in 20 mM HEPES buffer, pH 8, with 0.1% Triton X-100 to obtain enzymatic solution with an enzymatic activity of 0.25 unit/mL.
# (§5) In the procedure, 100 µL of 0.3 mM DTNB dissolved in phosphate buffer, pH 7.4, were added in 96-well plates, followed by 50 µL solution of the test compound and 50 µL enzyme (final 0.05 U). After 5 minutes of pre-incubation at 25° C., the reaction was initiated by injecting 50 µL of 0.1 mM acetyl or butyryl thiocholine iodide solution. The acetyl or butyryl thiocholine hydrolysis was followed by the formation of yellow 5-thio 2-nitrobenzoate anion as the product of the reaction of DTNB with the thiocholine released by the enzymatic hydrolysis of the acetyl or butyryl thiocholine, at a wavelength of 412 nm, using a microplate reader (Synergy 2, Biotek, Colmar, France). The compounds to be tested were dissolved to 5×10^-3 M in analytical grade DMSO. Donepezil or tacrine were used as reference standards. The absorption increase rate at 412 nm was determined 4 minutes after the addition of the acetyl or butyryl thiocholine iodide solution. The tests were carried out with a blank containing all the compounds except the acetyl or butyryl thiocholine in order to take into account non-enzymatic reactions.
# (§6) The percentage of inhibition due to the presence of the test compounds was calculated using the following expression: […]
# (§7) wherein vi is the rate calculated in the presence of the inhibitor, and v0 is the enzymatic activity.
# (§8) IC50 values were graphically determined by plotting the percentage of inhibition as a function of the logarithm of six inhibitor concentrations in the test solution using the GraphPadPrism software (version 6.01, GraphPad Software, La Jolla, Calif., USA). All the experiments were carried out in n=3.
# [2] = target: T2, human erythrocyte AChE (hAChE) (Homo sapiens, UniProt P22303); experiment: acetylcholinesterase inhibition, Ellman spectrometric method; type: biochemical
# T2 construct: The human erythrocyte AChE (hAChE, aqueous buffer solution); purchased Sigma Aldrich; host or cells: human erythrocytes (natural source)
# Method: as §1, §2, §3, §4, §5, §6, §7, §8
# T2 sequence (P22303 32-617 isoform P22303-2 limits assumed): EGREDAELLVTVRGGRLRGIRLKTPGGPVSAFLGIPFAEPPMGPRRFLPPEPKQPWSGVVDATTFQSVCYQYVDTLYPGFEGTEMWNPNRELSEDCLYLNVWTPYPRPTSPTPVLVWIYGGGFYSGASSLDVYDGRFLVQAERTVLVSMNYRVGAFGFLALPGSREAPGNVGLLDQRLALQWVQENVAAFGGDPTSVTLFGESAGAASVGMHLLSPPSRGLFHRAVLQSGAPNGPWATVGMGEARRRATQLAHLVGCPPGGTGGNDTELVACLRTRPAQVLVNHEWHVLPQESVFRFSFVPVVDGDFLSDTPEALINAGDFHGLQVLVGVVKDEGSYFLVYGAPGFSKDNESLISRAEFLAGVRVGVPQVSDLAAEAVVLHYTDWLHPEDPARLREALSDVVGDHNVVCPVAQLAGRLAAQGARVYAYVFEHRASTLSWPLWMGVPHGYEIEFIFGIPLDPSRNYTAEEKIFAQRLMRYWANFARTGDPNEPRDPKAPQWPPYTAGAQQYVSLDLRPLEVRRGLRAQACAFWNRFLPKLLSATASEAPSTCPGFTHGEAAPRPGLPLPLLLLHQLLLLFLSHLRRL
# T1 sequence (P81908 whole entry): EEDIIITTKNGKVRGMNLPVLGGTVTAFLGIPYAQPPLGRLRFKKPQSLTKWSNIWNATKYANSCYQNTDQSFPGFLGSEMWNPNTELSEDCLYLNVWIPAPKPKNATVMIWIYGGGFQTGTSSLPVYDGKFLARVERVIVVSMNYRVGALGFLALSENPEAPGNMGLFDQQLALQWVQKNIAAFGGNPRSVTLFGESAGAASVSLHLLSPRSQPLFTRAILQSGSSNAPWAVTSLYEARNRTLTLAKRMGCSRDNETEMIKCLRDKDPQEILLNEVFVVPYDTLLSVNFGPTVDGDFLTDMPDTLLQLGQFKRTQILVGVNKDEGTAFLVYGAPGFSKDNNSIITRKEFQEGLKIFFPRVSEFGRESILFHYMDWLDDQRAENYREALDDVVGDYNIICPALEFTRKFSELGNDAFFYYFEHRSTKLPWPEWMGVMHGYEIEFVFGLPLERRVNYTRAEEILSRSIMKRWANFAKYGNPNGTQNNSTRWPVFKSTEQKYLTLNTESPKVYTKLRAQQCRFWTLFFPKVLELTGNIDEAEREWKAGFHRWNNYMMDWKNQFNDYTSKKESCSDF
Compound,pIC50 [1],pIC50 [2],"inhibition on butyrylcholinesterase / lC50 for eqBuChE, in words [1]","lC50 eqBuChE ([1]; Table 1, n=3)","lC50 hAChE ([2]; Table 1, n=3)"
"O=P(Oc1ccccc1)(Oc1ccccc1)Oc1ccc(OP(=O)(Oc2ccccc2)Oc2ccccc2)c(-c2ccccc2)c1 [Compound 11, phenylhydroquinone bis(diphenylphosphate)]",4.59,4.45,,,
"CC(C)(C)c1cc(OP(=O)(Oc2ccccc2)Oc2ccccc2)ccc1OP(=O)(Oc1ccccc1)Oc1ccccc1 [Compound 12, tert-butyl hydroquinone bis(diphenylphosphate)]",3.98,4.62,,,
"CC(C)(C)c1cc(OP(=O)(Oc2ccccc2)Oc2ccccc2)c(C(C)(C)C)cc1OP(=O)(Oc1ccccc1)Oc1ccccc1 [Compound 13, 2,5-di-tert-butyl hydroquinone bis(diphenylphosphate)]",3.95,4.57,,,
"O=P(Oc1ccccc1)(Oc1ccccc1)Oc1ccc(OP(=O)(Oc2ccccc2)Oc2ccccc2)c2ccccc12 [Compound 14, 1,4-dihydroxynaphthalene bis(diphenylphosphate)]",3.90,4.56,,,
"O=P(Oc1ccccc1)(Oc1ccccc1)Oc1ccc2ccc(OP(=O)(Oc3ccccc3)Oc3ccccc3)cc2c1 [Compound 15, 2,7-dihydroxynaphthalene bis(diphenylphosphate)]",4.05,4.54,,,
"O=C(c1ccc(OP(=O)(Oc2ccccc2)Oc2ccccc2)cc1)c1ccc(OP(=O)(Oc2ccccc2)Oc2ccccc2)cc1 [Compound 16, 4,4′-dihydroxybenzophenone bis(diphenylphosphate)]",3.79,4.40,,,
"O=P(Oc1ccccc1)(Oc1ccccc1)Oc1ccc(S(=O)(=O)c2ccc(OP(=O)(Oc3ccccc3)Oc3ccccc3)cc2)cc1 [Compound 17, bis(4-dihydroxyphenyl)sulfone bis(diphenylphosphate)]",4.02,4.52,,,
O=P(Oc1ccccc1)(Oc1ccccc1)Oc1ccc(C(c2ccc(OP(=O)(Oc3ccccc3)Oc3ccccc3)cc2)(C(F)(F)F)C(F)(F)F)cc1 [Compound 18],3.85,4.47,,,
"CC(c1ccccc1)(c1ccc(OP(=O)(Oc2ccccc2)Oc2ccccc2)cc1)c1ccc(OP(=O)(Oc2ccccc2)Oc2ccccc2)cc1 [Compound 19, 4,4′-(α-methylbenzylidene)bisphenol bis(diphenylphosphate)]",3.83,4.34,,,
"O=P(Oc1ccccc1)(Oc1ccccc1)Oc1ccc(C2(c3ccc(OP(=O)(Oc4ccccc4)Oc4ccccc4)cc3)CCCCC2)cc1 [Compound 20, 1,1-bis-(4-hydroxyphenyl)cyclohexane bis(diphenylphosphate)]",3.40,4.45,,,
"O=P(Oc1ccccc1)(Oc1ccccc1)Oc1ccc(C2(c3ccc(OP(=O)(Oc4ccccc4)Oc4ccccc4)cc3)c3ccccc3-c3ccccc32)cc1 [Compound 21, 9,9-bis(4-hydroxyphenyl)fluorene bis(diphenylphosphate)]",3.98,4.53,,,
"CC(c1ccc(OP(=O)(Oc2ccccc2)Oc2ccccc2)cc1)(c1ccc(OP(=O)(Oc2ccccc2)Oc2ccccc2)cc1)c1ccc(OP(=O)(Oc2ccccc2)Oc2ccccc2)cc1 [Compound 23, 1,1,1-Tris(4-hydroxyphenyl)ethane tris(diphenylphosphate)]",4.15,4.70,,,
"CC(C)(C)c1ccc(OP(=O)(Oc2ccc(C(C)(C)C)cc2)Oc2ccc(C(C)(C)C)cc2)cc1 [Compound I2, Tri(p-tert-butylphenyl)phosphate, reference compound]",,,reduced inhibition,,
"O=P(Oc1ccccc1)(Oc1ccccc1)Oc1cc(OP(=O)(Oc2ccccc2)Oc2ccccc2)c2ccccc2c1 [X, 1,3-dihydroxynaphthalene bis(diphenylphosphate), reference compound]",5.14,4.58,,,
"O=P(Oc1ccccc1)(Oc1ccccc1)Oc1ccc(OP(=O)(Oc2ccccc2)Oc2ccccc2)c(Cl)c1 [Y, 2-chlorohydroquinone bis(diphenylphosphate), reference compound]",6.00,4.39,,,
"CC(=O)c1cc(OP(=O)(Oc2ccccc2)Oc2ccccc2)ccc1OP(=O)(Oc1ccccc1)Oc1ccccc1 [Z, (2,5-dihydroxy)1-acetophenone bis(diphenylphosphate), reference compound]",6.94,4.53,,,
dimer diol (C34-36) bis(diphenylphosphate) [Compound 22],,,,88.3 mg/L,15.6 mq/L
